Data: PMC12298351, “Novel 3,19-(N-Phenyl-3-(4-fluorophenyl)-pyrazole) Acetal of Andrographolide Promotes Cell Cycle Arrest and Apoptosis in MDA-MB-231 Breast Cancer Cells” (Pharmaceuticals, 2025)

Columns and labels:
[1] = system: SNB-19; assay type: cell-based; conditions: SNB-19, CNS; for CC50: read-out: 50% lethal concentration (LC50)
[2] = system: M14; assay type: cell-based; conditions: M14, Melanoma
[3] = system: OVCAR-4; assay type: cell-based; conditions: OVCAR-4, Ovarian; for CC50: read-out: 50% lethal concentration (LC50)
[4] = system: TK-10; assay type: cell-based; conditions: TK-10, Renal; for CC50: read-out: 50% lethal concentration (LC50)
[5] = system: BT-549; assay type: cell-based; conditions: BT-549, Breast
[6] = system: K-562; conditions: K-562, Leukemia; for CC50: read-out: 50% lethal concentration (LC50)
[7] = system: MOLT-4; conditions: MOLT-4, Leukemia; for CC50: read-out: 50% lethal concentration (LC50)
[8] = system: RPMI-8226; conditions: RPMI-8226, Leukemia; for CC50: read-out: 50% lethal concentration (LC50)
[9] = system: EKVX; conditions: for Total growth inhibition (TGI): Non-Small Cell Lung; for GI50: Non-Small-Cell Lung; for CC50: read-out: 50% lethal concentration (LC50), Non-Small Cell Lung
[10] = system: NCI-H23; conditions: for Total growth inhibition (TGI) / CC50: NCI-H23, Non-Small Cell Lung; for GI50: NCI-H23, Non-Small-Cell Lung; for CC50: read-out: 50% lethal concentration (LC50)
[11] = system: COLO 205; conditions: COLO 205, Colon
[12] = system: HCC-2998; conditions: HCC-2998, Colon
[13] = system: HT29; conditions: HT29, Colon; for CC50: read-out: 50% lethal concentration (LC50)
[14] = system: KM12; conditions: KM12, Colon
[15] = system: SW-620; conditions: SW-620, Colon
[16] = system: SF-268; conditions: SF-268, CNS; for CC50: read-out: 50% lethal concentration (LC50)
[17] = system: SF-295; conditions: SF-295, CNS; for CC50: read-out: 50% lethal concentration (LC50)
[18] = system: U251; conditions: U251, CNS
[19] = system: LOX IMVI; conditions: for GI50 / Total growth inhibition (TGI): Melanoma; for CC50: read-out: 50% lethal concentration (LC50), Melanoma
[20] = system: SK-MEL-2; conditions: SK-MEL-2, Melanoma
[21] = system: SK-MEL-5; conditions: SK-MEL-5, Melanoma; for CC50: read-out: 50% lethal concentration (LC50)
[22] = system: UACC-257; conditions: UACC-257, Melanoma
[23] = system: IGROV1; conditions: IGROV1, Ovarian; for CC50: read-out: 50% lethal concentration (LC50)
[24] = system: OVCAR-3; conditions: OVCAR-3, Ovarian; for CC50: read-out: 50% lethal concentration (LC50)
[25] = system: OVCAR-5; conditions: OVCAR-5, Ovarian
[26] = system: SK-OV-3; conditions: SK-OV-3, Ovarian; for CC50: read-out: 50% lethal concentration (LC50)
[27] = system: CAKI-1; conditions: CAKI-1, Renal; for CC50: read-out: 50% lethal concentration (LC50)
[28] = system: SN12C; conditions: for GI50 / Total growth inhibition (TGI): Renal; for CC50: read-out: 50% lethal concentration (LC50), Renal
[29] = system: PC-3; conditions: PC-3, Prostate; for CC50: read-out: 50% lethal concentration (LC50)
[30] = system: MDA-MB-231; conditions: for GI50: MDA-MB-231, Breast; for Total growth inhibition (TGI) / CC50: MDA-MB-231/ATCC, Breast; for CC50: read-out: 50% lethal concentration (LC50)
[31] = system: T-47D; conditions: for GI50 / Total growth inhibition (TGI): Breast; for CC50: read-out: 50% lethal concentration (LC50), Breast
[32] = system: MDA-MB-468; conditions: MDA-MB-468, Breast; for CC50: read-out: 50% lethal concentration (LC50)
[33] = read-out: 50% lethal concentration (LC50)

C=C1CCC2C3(C)COC(c4cn(-c5ccccc5)nc4-c4cccc(Br)c4)OC3CCC2(C)C1CC=C1C(=O)OCC1O (stereo not shown) [1e]
GI50 [1]: 2.17 µM | Total growth inhibition (TGI) [1]: 5.24 µM | CC50 [1]: 17.2 µM | GI50 [2]: 1.86 µM | Total growth inhibition (TGI) [2]: 4.12 µM | GI50 [3]: 2.49 µM | CC50 [3]: > 100 µM | GI50 [4]: 2.12 µM | Total growth inhibition (TGI) [4]: 3.58 µM | CC50 [4]: 40.4 µM | GI50 [5]: 1.46 µM | Total growth inhibition (TGI) [5]: 2.99 µM | GI50 [6]: 2.89 µM | Total growth inhibition (TGI) [6]: > 100 µM | CC50 [6]: > 100 µM | GI50 [7]: 0.91 µM | Total growth inhibition (TGI) [7]: 4.24 µM | CC50 [7]: > 100 µM | GI50 [8]: 2.75 µM | Total growth inhibition (TGI) [8]: > 100 µM | CC50 [8]: > 100 µM | Total growth inhibition (TGI) [9]: 5.16 µM | GI50 [9]: 2.1 µM | CC50 [9]: > 100 µM | Total growth inhibition (TGI) [10]: 4.07 µM | GI50 [10]: 1.9 µM | CC50 [10]: 8.74 µM | GI50 [11]: 2.09 µM | Total growth inhibition (TGI) [11]: 4.36 µM | GI50 [12]: 1.72 µM | Total growth inhibition (TGI) [12]: 3.33 µM | GI50 [13]: 1.66 µM | Total growth inhibition (TGI) [13]: 3.46 µM | CC50 [13]: 7.23 µM | GI50 [14]: 1.83 µM | Total growth inhibition (TGI) [14]: 3.58 µM | GI50 [15]: 1.72 µM | Total growth inhibition (TGI) [15]: 3.64 µM | GI50 [16]: 2.02 µM | Total growth inhibition (TGI) [16]: 4.26 µM | CC50 [16]: 8.98 µM | GI50 [17]: 1.36 µM | Total growth inhibition (TGI) [17]: 2.68 µM | CC50 [17]: 5.3 µM | GI50 [18]: 1.69 µM | Total growth inhibition (TGI) [18]: 3.13 µM | GI50 [19]: 1.64 µM | Total growth inhibition (TGI) [19]: 3.03 µM | CC50 [19]: 5.59 µM | GI50 [20]: 1.78 µM | Total growth inhibition (TGI) [20]: 3.38 µM | GI50 [21]: 1.54 µM | Total growth inhibition (TGI) [21]: 2.88 µM | CC50 [21]: 5.39 µM | GI50 [22]: 1.77 µM | Total growth inhibition (TGI) [22]: 3.45 µM | GI50 [23]: 2.2 µM | Total growth inhibition (TGI) [23]: 4.83 µM | CC50 [23]: > 100 µM | GI50 [24]: 1.69 µM | Total growth inhibition (TGI) [24]: 3.21 µM | CC50 [24]: 6.08 µM | GI50 [25]: 1.85 µM | Total growth inhibition (TGI) [25]: 4.35 µM | CC50 [25, 33]: 47.7 µM | GI50 [26]: 4.16 µM | Total growth inhibition (TGI) [26]: 48.3 µM | CC50 [26]: > 100 µM | GI50 [27]: 1.42 µM | Total growth inhibition (TGI) [27]: 2.98 µM | CC50 [27]: 6.04 µM | GI50 [28]: 1.57 µM | Total growth inhibition (TGI) [28]: 2.55 µM | CC50 [28]: 8.12 µM | GI50 [29]: 2.29 µM | CC50 [29]: > 100 µM | GI50 [30]: 1.68 µM | Total growth inhibition (TGI) [30]: 3.23 µM | CC50 [30]: 6.23 µM | GI50 [31]: 2.29 µM | Total growth inhibition (TGI) [31]: 7.26 µM | CC50 [31]: > 100 µM | GI50 [32]: 1.82 µM | Total growth inhibition (TGI) [32]: 3.41 µM | CC50 [32]: 6.37 µM

C=C1CCC2C3(C)COC(c4cn(-c5ccccc5)nc4-c4cccc([N+](=O)[O-])c4)OC3CCC2(C)C1CC=C1C(=O)OCC1O (stereo not shown) [1b]
GI50 [1]: 3.64 µM | Total growth inhibition (TGI) [1]: 15 µM | CC50 [1]: 60 µM | GI50 [2]: 2.08 µM | LC50 (50% lethal concentration) [2]: 9.85 µM | Total growth inhibition (TGI) [2]: 4.52 µM | GI50 [3]: 4.05 µM | Total growth inhibition (TGI) [3]: > 100 µM | CC50 [3]: > 100 µM | GI50 [4]: 2.22 µM | Total growth inhibition (TGI) [4]: 5.82 µM | CC50 [4]: > 100 µM | GI50 [5]: 1.94 µM | Total growth inhibition (TGI) [5]: 3.8 µM | GI50 [6]: 2.16 µM | Total growth inhibition (TGI) [6]: > 100 µM | CC50 [6]: > 100 µM | GI50 [7]: 2.87 µM | Total growth inhibition (TGI) [7]: > 100 µM | CC50 [7]: > 100 µM | GI50 [8]: 2.45 µM | Total growth inhibition (TGI) [8]: > 100 µM | CC50 [8]: > 100 µM | Total growth inhibition (TGI) [9]: 7.98 µM | GI50 [9]: 2.75 µM | CC50 [9]: > 100 µM | Total growth inhibition (TGI) [10]: 3.55 µM | GI50 [10]: 1.83 µM | CC50 [10]: 6.87 µM | GI50 [11]: 2.41 µM | Total growth inhibition (TGI) [11]: 5.06 µM | CC50 [11, 33]: 12.7 µM | GI50 [12]: 1.92 µM | Total growth inhibition (TGI) [12]: 3.53 µM | CC50 [12, 33]: 6.48 µM | GI50 [13]: 1.82 µM | Total growth inhibition (TGI) [13]: 4.26 µM | CC50 [13]: 9.95 µM | GI50 [14]: 1.99 µM | Total growth inhibition (TGI) [14]: 4.38 µM | GI50 [15]: 2.21 µM | Total growth inhibition (TGI) [15]: 5.13 µM | CC50 [15, 33]: > 100 µM | GI50 [16]: 7.65 µM | Total growth inhibition (TGI) [16]: > 100 µM | CC50 [16]: > 100 µM | GI50 [17]: 1.68 µM | Total growth inhibition (TGI) [17]: 3.19 µM | CC50 [17]: 6.05 µM | GI50 [18]: 1.74 µM | Total growth inhibition (TGI) [18]: 3.35 µM | CC50 [18, 33]: 6.46 µM | GI50 [19]: 1.72 µM | Total growth inhibition (TGI) [19]: 3.34 µM | CC50 [19]: 6.48 µM | GI50 [20]: 1.78 µM | Total growth inhibition (TGI) [20]: 3.51 µM | CC50 [20, 33]: 6.94 µM | GI50 [21]: 1.63 µM | Total growth inhibition (TGI) [21]: 3 µM | CC50 [21]: 5.53 µM | GI50 [22]: 1.8 µM | Total growth inhibition (TGI) [22]: 3.68 µM | CC50 [22, 33]: 7.53 µM | GI50 [23]: 2.08 µM | Total growth inhibition (TGI) [23]: 4.27 µM | CC50 [23]: 8.76 µM | GI50 [24]: 1.87 µM | Total growth inhibition (TGI) [24]: 3.75 µM | CC50 [24]: 7.55 µM | GI50 [25]: 2.06 µM | Total growth inhibition (TGI) [25]: 5.05 µM | GI50 [26]: 2.08 µM | Total growth inhibition (TGI) [26]: > 100 µM | CC50 [26]: > 100 µM | GI50 [27]: 2.81 µM | Total growth inhibition (TGI) [27]: > 100 µM | CC50 [27]: > 100 µM | GI50 [28]: 2.93 µM | Total growth inhibition (TGI) [28]: 10.3 µM | CC50 [28]: > 100 µM | GI50 [29]: 2.75 µM | Total growth inhibition (TGI) [29]: 9.04 µM | CC50 [29]: > 100 µM | GI50 [30]: 1.84 µM | Total growth inhibition (TGI) [30]: 3.44 µM | CC50 [30]: 6.44 µM | GI50 [31]: 1.76 µM | Total growth inhibition (TGI) [31]: 5.02 µM | CC50 [31]: > 100 µM | GI50 [32]: 1.76 µM | Total growth inhibition (TGI) [32]: 3.52 µM | CC50 [32]: 7 µM
